Experimental data as given in patent US20040019060A1, “Sigma receptor ligands and their medical uses” (priority 2000, published 2004).
Where two headings read alike, the source gives them in different places.

What was measured:
endothelial cells = assay: Endothelial cell proliferation assay (cell phosphatase activity); format: cell-based, human; settings: for IC50: concentration of drug required to inhibit survival and/or proliferation by 50%, read-out: Antagonists: IC50; for Rescue from Rimcazole inhibition of proliferation: 4 μM agonist added together with 4 μM Rimcazole; for Stimulatory activity on cell proliferation: agonist ligands alone; for Agonists: stimulation: increase in cell number relative to controls on day 4
Description: HUVECS (human umbilical vein endothelial cells) obtained from TCS Biologicals were grown in TCS Biologicals Large Vessel Endothelial Cell Basal Medium (ZHM-2951) with supplement (ZHS-8945). This contains heparin, hydrocortisone, human EGF, human bFGF (concentrations not disclosed by the Company) with added 2% FCS, pH 7.4.
(§1) HMEC-1 (immortalised human microvascular endothelial cells) obtained from Dr Colin Porter, Chester Beatty Laboratories were grown in TCS Biologicals Microvascular Endothelial Cell Basal Medium (ZHM-2946) with supplement (ZHS-8947). This contains heparin, hydrocortisone, human EGF, human bFGF, dibutyryl cyclic AMP (concentrations not disclosed by the Company) with added 5% FCS, pH 7.4.
as §1, with “HDMECS (human dermal” for “HMEC-1 (immortalised human”, “TCS Biologicals” for “Dr Colin Porter, Chester Beatty Laboratories”
The cells were seeded at 2×10^4 ml in 96 well microtitre plates on day 0, and sigma ligands were added in fresh medium on day 1. […] PCS at the concentrations indicated was present throughout the assay. Each concentration of drug was assayed in triplicate, and the vehicle concentration was kept constant.
Viable cells present at the end of the assay were estimated by determining phosphatase activity as follows: 100Xl of paranitrophenylphosphate (Sigma) at 3 mg/ml in phosphate buffer pH 5.5 containing 0.1% Triton X100 was added to wells and incubated for 2hr at 37° C. The reaction was stopped with 1N NaOH. Released paranitrophenol, indicative of attached cell number, was measured by reading the absorbance at 405 nm in a Titertek multiscan. […] The 100% value is the mean absorbance of control wells treated with vehicle alone; the 0% value is that of wells containing medium only.

sigma-1 sites = sigma-1 sites (Homo sapiens, UniProt Q99720); settings: cited from earlier work; for affinity for sigma-1 versus sigma-2 sites / selectivity for sigma sites compared to other receptors: Matsumoto et al 1995; for selectivity for sigma sites compared to other receptors: vs opiate, phencyclidine, muscarinic, dopamine, alpha-1-, alpha-2-, beta-adrenoceptor, 5HT-1, 5-HT-2
Sequence of sigma-1 sites (Q99720 whole entry): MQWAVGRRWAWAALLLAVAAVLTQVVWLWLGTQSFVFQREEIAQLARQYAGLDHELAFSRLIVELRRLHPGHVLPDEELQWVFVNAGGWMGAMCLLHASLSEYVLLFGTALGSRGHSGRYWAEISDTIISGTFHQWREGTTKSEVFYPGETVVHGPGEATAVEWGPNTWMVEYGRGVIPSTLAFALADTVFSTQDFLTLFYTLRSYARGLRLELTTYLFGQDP

[1] = test system: Human endothelial cells co-cultured with human "feeder" fibroblasts; assay: In vitro angiogenesis assay (pseudocapillary formation, anti-CD31 staining); format: cell-based
Description: Human endothelial cells co-cultured with human “feeder” fibroblasts on a fibrin matrix in 24 well plates were incubated with ligands at different concentrations. The ligands were added on days 0, 4, 7 and 9 and the experiment terminated on day 11. On each plate, 2 wells served as untreated controls, and 2 received suramin at […] as a standard angiogenesis inhibitor. Each concentration of ligand was assayed in triplicate. On day 11, the wells were washed, and the endothelial cells fixed and stained with anti-CD31 (PECAM-1) antibody and visualised with alkaline phosphatase conjugated second antibody. The cultures were scanned for image analysis and quantitation using a DataCell image analysis system and ImagePro software. Angiogenesis was expressed as the area and/or perimeter of “pseudocapillaries” formed in the gel by the endothelial cells.

[2] = test system: Human adult dermal microvascular endothelial cells; assay: MTS cell viability/proliferation assay, microvascular endothelial cells
[3] = Pharmacokinetics in mice (LCMS of plasma, liver, spleen); format: in vivo, Balb/C mice; settings: not shown
Description: Prior to undertaking any in vivo experiments with Rimcazole to study effects on tumour growth and angiogenesis, it was necessary to determine its pharmacokinetics in order that doses in the active range could be administered. Rimcazole (dissolved in water) was administered at 40 mg/kg i.p to Balb/C mice. Heparinised blood samples were taken at 5, 15 and 30 minutes, 1,2,4,6, and 24 hours and plasma separated. Tissue samples were also taken at some time points for analysis. Rimcazole samples were initially analysed by LCMS.
Column: Supelco 50×4.6 mm ABZ+ with 5 μ packing.
Mobile phase: A=HPLC grade methanol, B=0.1% formic acid in water.
Full scan mode: mass range analysed 50 to 850 amu.
MSMS mode: filtered ions were 322 (Rimcazole), 338 (Rimcazole+oxygen), and 514 (glucuronide of 338 metabolite).

sponge angiogenesis = assay: Rat sponge angiogenesis model (125I albumin vascular volume); format: in vivo, CBH/cbi rats
Description: In order to study neoangiogenesis in the absence of tumours, sterile polyether sponges were implanted into animals. This technique, developed in Cambridge, has been widely used to study angiogenesis. We have employed a triple radiotracer technique to study different aspects of the angiogenic process.
CBH/cbi rats were implanted s.c. with sterile 13 mm diameter sponges as above. They were treated i.p. with Rimcazole (30 mg/kg/day) for 14 days from day 0. Five minutes before termination, they were injected with ^125I labelled rat albumin (a macromolecule which, in the short term remains intravascular). The amount of radioiodine in the sponges is an index of vascular volume.

[4] = test system: Human mammary carcinoma (MDA MB 468) cells; assay: MTS cell viability/proliferation assay, mammary carcinoma cells; format: cell-based; settings: 10 micromolar, low passage cells, FIG. 9
Description: Human mammary carcinoma (MDA MB 468) cells were obtained from TCC, Manassas, Va., USA; catalogue number HTB-132; cells were grown in accordance with the manufacturer's instructions.
(§2) Cell density was checked microscopically at time zero.

[5] = test system: human adult dermal fibroblasts; assay: MTS cell viability/proliferation assay, dermal fibroblasts; format: cell-based
Description: (§3) (Tissue in all cases was from healthy donors). […] Primary cell types included:
as §2

[6] = test system: Human mammary epithelial cells; assay: MTS cell viability/proliferation assay, mammary epithelial cells; format: cell-based; settings: 10 micromolar, up to 48 hours, FIG. 9
Description: as §3
Human mammary epithelial cells (catalogue number CC-2551; stain positive for cytokeratins 14, 18 and 19).
as §2

Compound: CN(C)CCN(C)CCc1ccc(Cl)c(Cl)c1 [BD1047, N(−)[2-(3,4-dichlorophenyl)ethyl]-N-methyl-2-(dimethylamino)ethylamine]
- IC50 (endothelial cells): 74 µM
- affinity for sigma-1 versus sigma-2 sites (sigma-1 sites): preferential affinities for sigma-1 compared to sigma-2
- selectivity for sigma sites compared to other receptors (sigma-1 sites): marked selectivity

Compound: C=CCN1CCC2(C)c3cc(O)ccc3CC1C2C (single isomer, unassigned; (+)) [(+)-SKF-10047, (+)-N-allyl normetazocine]
- Rescue from Rimcazole inhibition of proliferation (endothelial cells; FIG. 3): slight increase in survival
- Rescue from Rimcazole inhibition: numbers of endothelial cells (endothelial cells; 10 μM agonist added together with 4 μM Rimcazole, FIG. 3): the same as in control untreated cultures
- Stimulatory activity on cell proliferation (endothelial cells): moderate stimulatory activity
- Agonists: stimulation (endothelial cells; at 100 μM): 110% at 100 μM

Compound: CC(C)=CCN1CCC2(C)c3cc(O)ccc3CC1C2C (single isomer, unassigned; (+)) [(+)pentazocine, (+)-pentazocine]
- Rescue from Rimcazole inhibition of proliferation (endothelial cells; FIG. 3): slight increase in survival
- Stimulatory activity on cell proliferation (endothelial cells): moderate stimulatory activity
- Agonists: stimulation (endothelial cells; at 4 μM): 120% at 4 μM
- Rescue of in vitro angiogenesis inhibition by 4 μM Rimcazole ([1]; equimolar concentration co-incubated, FIG. 5c): can be prevented
- Prevention of cytotoxic effect of IPAG and rimcazole ([2]; 10 micromolar co-administered with 10 micromolar IPAG or rimcazole, FIG. 11): completely prevented
- Cell proliferation rate on co-administration with rimcazole and IPAG ([2]; co-administration, FIG. 11): increased cell proliferation rates above control values

Compound: N=C(Nc1ccc(I)cc1)NC1C2CC3CC(C2)CC1C3 (stereo not shown) [IPAG, 1-(4-iodophenyl)-3-(2-adamantyl)guanidine]
- IC50 (endothelial cells; Homo sapiens, Endothelial cell): 11 µM
- Inhibition of endothelial cell proliferation compared with Rimcazole (endothelial cells; not shown): as effective as Rimcazole
- Inhibition of pseudocapillary formation (in vitro angiogenesis) ([1]; FIG. 4, 5a, 5b angiogenesis area): very effective in inhibiting
- Pharmacokinetics compared with Rimcazole [3]: similarly favourable PK
- Vascular volume of normal organs (liver and kidney) (sponge angiogenesis; 30 mg/kg/day for 14 days): unaffected
- Neoangiogenesis in sponges (vascular volume, radiolabelled albumin) (sponge angiogenesis; 30 mg/kg/day for 14 days after implantation, FIG. 7b): reduced
- Cell killing (MTS viability) [4]: no surviving cells remained after 24 hours
- Survival and proliferation (MTS) ([5]; 10 micromolar, up to 48 hours, FIG. 9): continued to proliferate vigorously
- Tolerance of fibroblasts over a range of concentrations (MTS) ([5]; 100 micromolar to 1 nanomolar, FIG. 10): slightly less tolerant of high concentrations
- Survival and proliferation (MTS) [6]: continued to proliferate vigorously
- Ki (sigma-1 sites; Whittemore et al 1997, read-out: inhibition constant for sigma-1 sites): ~0.0028 µM
- cytotoxicity at 10 µM ([2]; Homo sapiens, Endothelial cell, read-out: Reduction in viable cell numbers compared to baseline values): 60 to 80%

Compound: CN1CCN(CCc2ccc(Cl)c(Cl)c2)CC1 [BD1063, 1(−)[2-(3,4-dichlorophenyl)ethyl]-4-methylpiperazine]
- IC50 (endothelial cells; Homo sapiens, Endothelial cell): 71 µM
- affinity for sigma-1 versus sigma-2 sites (sigma-1 sites): preferential affinities for sigma-1 compared to sigma-2
- selectivity for sigma sites compared to other receptors (sigma-1 sites): marked selectivity
